Reference: US20020013373A1, “Methods and compositions for treatment of asthma” (priority 1997, published 2002)
Read-outs that look alike come from different tables or passages of the source.

Key:
allergic sheep [1] = details: for inhibition of ABR: FIG. 6
Procedure: Five allergic sheep, with previously documented acute bronchoconstrictor response to Ascaris suum antigen, were used for all studies. The sheep were intubated with a cuffed nasotracheal tube and pulmonary airflow resistance (RL) was measured by the esophageal balloon catheter technique, while thoracic gas volume was measured by body plethysmography. Data was expressed as specific resistance, SRL. SRL is defined as RL times thoracic gas volume (Vtg).
The normal reaction of the sheep to the antigen from Ascaris suum is measured. After full recovery and a two week rest period, the sheep again undergo repeat antigen challenge, but this time only after treatment with D-propranolol.
The SRL of the acute responder sheep was measured prior to any treatment (baseline). The normal response of the sheep to antigen challenge by Ascaris suum antigen was measured (Open circles). […] One hour after D-propranolol was administered, the sheep were challenged with Ascaris suum antigen by inhalation. The SRL was measured immediately after antigen challenge (AG0).
Specific lung resistance (SRL) was measured in 11 allergic sheep, of which six sheep were acute responders and five sheep were dual responders, before and serially after challenge with Ascaris suum antigen, without and after pretreatment with D- or L-propranolol. The propranolol was administered either in an inhaled dose or an oral dose.

allergic sheep [2] = assay: Antigen-induced bronchoconstriction (early and late phase SRL), dual responder sheep; type: in vivo; details: dual responders
From the text: Data was expressed as specific resistance, SRL.

allergic sheep [3] = assay: Antigen-induced airway hyperresponsiveness (AHR), PD400 of carbachol, acute responder sheep; type: in vivo; details: acute responders; for inhibition of AHR (PD400): 2 hours after antigen, FIG. 7
Procedure: (§1) To assess the normal or baseline airway responsiveness of the sheep, cumulative dose response curves to inhaled carbochol were performed. The SRL of each sheep was measured before and after inhalation of a buffered saline solution and after each administration of 10 breaths of increasing concentrations of carbachol (0.25, 0.5, 1.0, 2.0 and 4.0% wt/vol solution). Airway responsiveness was defined by determination of the cumulative provocation dose (PD400) of carbachol (in breath units) that increased SRL to 400% above baseline. One breath unit was defined as one breath of 1% carbachol solution.
(§2) The following experiments used inhaled D- or L-propranolol. AHR was estimated at 2 hours (acute) or 24 hours (dual) after antigen challenge as the provocating dose of carbachol which increased SRL by 400% (PD400). In acute responders, SRL increased by 219% with antigen challenge and PD400 decreased by 55%. Inhaled D-propranolol had no effect on baseline SRL, but inhibited ABR in a dose dependent manner.

allergic sheep [4] = assay: Antigen-induced airway hyperresponsiveness (AHR), PD400 of carbachol, dual responder sheep; type: in vivo; details: dual responders
Procedure: as §1, §2

[5] = inhaled, FIG. 18 (legend: 10 mg/kg)

CC(C)NC[C@@H](O)COc1cccc2ccccc12 [D-propranolol]
allergic bronchoconstriction after antigen challenge (allergic sheep [1]; Example I, acute responders (n=5), aerosol 10 mg in 4 mL PBS one hour before antigen, FIG. 1): significant inhibition of allergic bronchoconstriction
percentage change in SRL after antigen stimulation vs control (allergic sheep [1]; Example I, acute responders (n=5), aerosol 10 mg in 4 mL PBS, P<0.05, FIG. 2): significantly less change in SRL
inhibition of ABR (allergic sheep [1]; acute responders, inhaled, 5 mg dose): 37%
inhibition of ABR (allergic sheep [1]; acute responders, inhaled, 10 mg dose, P<0.05): 68%
inhibition of ABR (allergic sheep [1]; acute responders, inhaled, 20 mg dose): 44%
effect on ABR (change in SRL) (allergic sheep [1]; acute responders, oral, 5 mg/kg, FIG. 10): effects ABR
effect on baseline SRL (allergic sheep [1]; in vivo): had no effect
attenuation of early phase (allergic sheep [2]; inhaled, 5 mg dose, FIG. 12): 35%
attenuation of late phase (allergic sheep [2]; inhaled, 5 mg dose, FIG. 12): 21%
effect on ABR (allergic sheep [2]; inhaled, 10 mg dose, FIG. 14): effected ABR
effect on early phase (allergic sheep [2]; oral, 5 mg/kg, FIG. 16): significantly effected the early phase
effect on late phase response (allergic sheep [2]; oral, 5 mg/kg, FIG. 16): may even remove the late phase response
airway responsiveness (PD400) after antigen (allergic sheep [3]; Example I, inhaled 10 mg in 4 mL PBS, P=NS, FIG. 4): maintained the airway responsiveness levels at the baseline
inhibition of AHR (PD400) (allergic sheep [3]; inhaled, 5 mg dose): 30%
inhibition of AHR (PD400) (allergic sheep [3]; inhaled, 10 mg dose): 50%
inhibition of AHR (PD400) (allergic sheep [3]; inhaled, 20 mg dose, P<0.05 vs post-antigen): 75%
effect on AHR (change in PD400) (allergic sheep [3]; oral, 5 mg/kg, FIG. 11): effects
inhibition of AHR (PD400) (allergic sheep [4]; inhaled, 5 mg dose, 24 hours after antigen, P<0.05, FIG. 13): 44%
effect on AHR (allergic sheep [4]; inhaled, 10 mg dose, FIG. 15): effected
effect on AHR (allergic sheep [4]; oral, 5 mg/kg, FIG. 17): effected AHR

CC(C)NC[C@H](O)COc1cccc2ccccc12 [L-propranolol, reference compound]
change in SRL after antigen challenge (allergic sheep [1]; acute responders, inhaled, 10 mg dose, FIG. 8): 209%
effect on antigen-induced responses (allergic sheep [2]; [5]): ineffective
peak early change in SRL (allergic sheep [2]; [5]): 351%
peak late SRL (allergic sheep [2]; [5]): 175%
AHR response (PD400) (allergic sheep [3]; inhaled, 10 mg dose, FIG. 9): no difference between the post antigen and L-propranolol responses
effect on PD400 (allergic sheep [4]; inhaled, 24 hours after antigen, FIG. 19 (legend: 10 mg/kg)): had no effect
